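Five concentrations, 48 hours, 96-well plates. Here, GI50 denotes the concentration required for 50% inhibition of growth. Definition used: TGI = concentration required for complete inhibition of growth.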
Key:
Test in all cases: NCI tumour cell line growth inhibition, 48 h
SW-620 colon = test system: SW-620 colon
T-47D breast = test system: T-47D breast
NCI/ADR-RES ovarian = test system: NCI/ADR-RES ovarian
COLO 205 colon = test system: COLO 205 colon
SF-295 CNS = test system: SF-295 CNS
SK-MEL-5 melanoma = test system: SK-MEL-5 melanoma
M14 melanoma = test system: M14 melanoma
786-0 renal = test system: 786-0 renal
CAKI-1 renal = test system: CAKI-1 renal
CCRF-CEM leukemia = test system: CCRF-CEM leukemia

Compound | GI50 (SW-620 colon) [µM] | TGI (SW-620 colon) [µM] | GI50 (T-47D breast) [µM] | TGI (T-47D breast) [µM] | GI50 (NCI/ADR-RES ovarian) [µM] | TGI (NCI/ADR-RES ovarian) [µM] | GI50 (COLO 205 colon) [µM] | TGI (COLO 205 colon) [µM] | GI50 (SF-295 CNS) [µM] | TGI (SF-295 CNS) [µM] | GI50 (SK-MEL-5 melanoma) [µM] | TGI (SK-MEL-5 melanoma) [µM] | GI50 (M14 melanoma) [µM] | TGI (M14 melanoma) [µM] | GI50 (786-0 renal) [µM] | TGI (786-0 renal) [µM] | GI50 (CAKI-1 renal) [µM] | TGI (CAKI-1 renal) [µM] | GI50 (CCRF-CEM leukemia) [µM] | TGI (CCRF-CEM leukemia) [µM]
COc1ccc(-c2cs/c(=N\N=C\c3ccc(O)cc3O)n2/N=C/c2ccc(O)cc2O)cc1 | 2.33 | 4.91 | 1.65 | 6.22 | 2.02 | 5.35 | 2.09 | 4.19 | 1.71 | 3.33 | 1.69 | 3.07 | 1.63 | 3.21 | 2.16 | 4.93 | – | – | – | –
CCC(O)c1ccc(Br)cc1NC(=O)c1cccc(Cl)c1 (stereo not given) | 26.6 | 99.6 | 12.7 | 84.8 | 23.4 | > 100 | 18.8 | 34.6 | 15 | 35.1 | 14.5 | 28.2 | 21.3 | 52.3 | 33.1 | > 100 | 10.2 | 51.4 | 20.5 | 58.9
NS(=O)(=O)c1ccc(-n2nc3c(c2-c2ccc(Cl)cc2)Cc2ccccc2-3)cc1 | 1.88 | 4.48 | 91 | > 100 | 19.6 | 44.8 | 22.8 | 64.1 | 29.8 | 82.3 | 1.36 | 3.33 | 13.1 | 31.5 | 14.6 | 30.7 | 17.5 | 31.6 | 2.96 | 9.08
CN(CCCCCl)P(=O)(OCCS(=O)(=O)CC(NC(=O)CCC(N)C(=O)O)C(=O)NC(C(=O)O)c1ccccc1)OCC1OC(n2ccc(N)nc2=O)C(F)(F)C1O (stereo not given) | 1.44 | > 100 | 1.33 | > 100 | 0.0664 | > 62.8 | 0.912 | > 100 | 0.334 | 2.71 | 0.484 | > 100 | 0.0369 | 0.435 | 0.02 | – | 0.0438 | 5.8 | 0.0897 | > 100
NCCSSCCN | – | > 100 | – | > 100 | – | > 100 | – | > 100 | – | > 100 | – | > 100 | – | > 100 | – | > 100 | – | > 100 | – | > 100
CC(C)c1c(-c2ccccc2)nc2c(C#N)c[nH]n2c1=O | 35.3 | > 100 | 25.2 | 87.6 | 31.2 | > 100 | 25.1 | 75.2 | 28.7 | > 84 | 19.6 | 40.4 | 30.6 | > 100 | 35.1 | > 100 | 31.2 | > 100 | 28.5 | > 100
O=C(Nc1cc(C(F)(F)F)ccc1Cl)c1ccc(NC2=C(Cl)C(=O)N(Cc3ccccc3)C2=O)cc1 | 6.72 | > 100 | 14.1 | > 100 | 62.7 | > 100 | 16 | 35.6 | 40.1 | > 100 | 18.6 | 60.4 | 37.6 | > 100 | 23.4 | > 100 | 42.6 | > 100 | 1.42 | 11.7
C=CCn1c(C)nc2ccc(Nc3nc(Nc4ccc(F)cc4)nc4ccccc34)cc21 | 2.8 | 10.7 | 1.7 | 4.23 | 4.01 | 37.7 | – | – | 6.08 | 20.3 | 1.36 | 2.64 | 3.26 | 14.2 | 7.44 | 23.8 | 6.86 | 27.5 | 3.01 | 11.7
O=C1/C(=C/c2cccc(Br)c2)COc2ccc(O)cc21 | 0.683 | 2.49 | 2.18 | 6.28 | 3.24 | 13.5 | 3.33 | 11.1 | 10.4 | 23.6 | 1.91 | 4.35 | 3.42 | 12.3 | 2.08 | 5.43 | 1.83 | 5.12 | 0.285 | 1.88
O=C(O)c1ccc(NCn2nc(-c3ccccc3O)oc2=S)cc1 | 38.9 | > 100 | > 100 | > 100 | 62.7 | > 100 | 48.8 | > 100 | > 100 | > 100 | > 100 | > 100 | 53.5 | > 100 | 39.7 | > 100 | > 100 | > 100 | 7.38 | > 100
COc1cc(C2SCCCCCCCCCCSC(c3ccc(O)c(OC)c3)SCCCCCCCCCCS2)ccc1O (stereo not given) | – | > 100 | – | > 100 | – | > 100 | – | > 100 | – | > 100 | – | > 100 | – | > 100 | – | > 100 | – | > 100 | – | –
C[C@@H]1C[C@H](C)CN(S(=O)(=O)c2ccc3c(NO)c4ccc(S(=O)(=O)N5C[C@H](C)C[C@H](C)C5)cc4c(N=O)c3c2)C1 | 0.0298 | 0.104 | 0.178 | 0.362 | 0.302 | > 1 | 0.172 | 0.342 | 0.178 | 0.338 | 0.25 | 0.687 | 0.103 | 0.231 | 0.169 | 0.309 | 0.335 | > 1 | – | –
COC(=O)c1cc2c3ccccc3n3c(=O)c4cc5ccc(N(S(=O)(=O)c6ccc(C)cc6)S(=O)(=O)c6ccc(C)cc6)cc5nc4c(n1)c23 | > 100 | > 100 | > 100 | > 100 | > 100 | > 100 | > 100 | > 100 | 20.5 | > 100 | > 100 | > 100 | 54.4 | > 100 | 13.6 | 43.9 | > 100 | > 100 | 19.2 | 44.9
